Reference: patent publication US20200331925A1, “HETEROCYCLIC COMPOUNDS FOR THE TREATMENT OF ABNORMAL CELLULAR PROLIFERATION” (G1 Therapeutics, Inc., priority 2018, published 2020)
pIC50: −log10 of the molar value.

Experiments:
Assay type in all cases: biochemical
[1] = molecular target: CDK2/Cyclin A (Homo sapiens, UniProt P24941); assay: CDK2/Cyclin A kinase assay (Nanosyn, Caliper microfluidic); settings: 12-point dose-response, ATP at Km (50 μM), 3 hr
Method: (§1) Selected compounds disclosed herein were tested in kinase assays by Nanosyn (Santa Clara, Calif.) to determine their inhibitory effect on selected CDKs. The assays were performed using microfluidic kinase detection technology (Caliper Assay Platform). The compounds were tested in 12-point dose-response format in singlicate at Kmfor ATP. Phosphoacceptor substrate peptide concentration used was 1 μM for all assays and Staurosporine was used as the reference compound for all assays. Specifics of each assay are as described below: CDK2/Cyclin A: Enzyme concentration: 0.1 nM; ATP concentration: 50 μM; Incubation time: 3 hr.

[2] = molecular target: CDK5/p25 (Homo sapiens, UniProt Q00535); assay: CDK5/p25 kinase assay (Nanosyn, Caliper microfluidic); settings: 12-point dose-response, ATP at Km (20 μM), 3 hr
Sequence of CDK5/p25 (Q00535 whole entry): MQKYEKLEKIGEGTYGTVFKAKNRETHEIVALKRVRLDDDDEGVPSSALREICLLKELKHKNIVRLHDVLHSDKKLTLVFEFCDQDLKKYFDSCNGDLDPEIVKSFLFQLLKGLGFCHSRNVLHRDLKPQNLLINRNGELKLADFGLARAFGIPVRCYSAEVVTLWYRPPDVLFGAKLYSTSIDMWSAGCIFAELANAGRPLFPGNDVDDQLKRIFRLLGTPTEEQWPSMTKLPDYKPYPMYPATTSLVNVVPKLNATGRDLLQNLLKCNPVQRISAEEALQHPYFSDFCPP
Sequence of CDK5/p25 (Q15078 99-307 partner limits assumed): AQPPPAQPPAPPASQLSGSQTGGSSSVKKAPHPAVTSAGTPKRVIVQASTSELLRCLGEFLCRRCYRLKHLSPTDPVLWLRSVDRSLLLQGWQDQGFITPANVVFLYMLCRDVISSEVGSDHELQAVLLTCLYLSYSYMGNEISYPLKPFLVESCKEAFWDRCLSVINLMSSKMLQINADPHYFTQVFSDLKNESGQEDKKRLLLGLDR
Method: as §1, with “CDK5/p25:” for “CDK2/Cyclin A:”, “20” for “50”

[3] = molecular target: CDK3/Cyclin E (Homo sapiens, UniProt Q00526); assay: CDK3/Cyclin E kinase assay (Nanosyn, Caliper microfluidic); settings: 12-point dose-response, ATP at Km (400 μM), 3 hr
Method: as §1, with “CDK3/Cyclin E:” for “CDK2/Cyclin A:”, “1” for “0.1”, “400” for “50”

[4] = molecular target: CDK2/Cyclin E (Homo sapiens, UniProt P24941); assay: CDK2/Cyclin E kinase assay (Nanosyn, Caliper microfluidic); settings: 12-point dose-response, ATP at Km (100 μM), 3 hr
Method: as §1, with “E:” for “A:”, “0.15” for “0.1”, “100” for “50”

[5] = molecular target: CDK4/Cyclin D1 (Homo sapiens, UniProt P11802); assay: CDK4/Cyclin D1 kinase assay (Nanosyn, Caliper microfluidic); settings: 12-point dose-response, ATP at Km (200 μM), 3 hr; Table 4
Sequence of CDK4/Cyclin D1 (P11802 whole entry): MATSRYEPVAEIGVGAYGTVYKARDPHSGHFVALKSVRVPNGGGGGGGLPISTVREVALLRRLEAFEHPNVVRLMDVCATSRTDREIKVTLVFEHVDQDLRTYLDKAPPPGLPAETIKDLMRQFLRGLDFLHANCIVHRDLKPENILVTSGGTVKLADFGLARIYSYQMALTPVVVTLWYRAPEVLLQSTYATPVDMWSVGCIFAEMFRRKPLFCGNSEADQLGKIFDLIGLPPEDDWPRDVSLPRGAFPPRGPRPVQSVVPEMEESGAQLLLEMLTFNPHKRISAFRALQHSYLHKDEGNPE
Sequence of CDK4/Cyclin D1 (P24385 whole entry partner): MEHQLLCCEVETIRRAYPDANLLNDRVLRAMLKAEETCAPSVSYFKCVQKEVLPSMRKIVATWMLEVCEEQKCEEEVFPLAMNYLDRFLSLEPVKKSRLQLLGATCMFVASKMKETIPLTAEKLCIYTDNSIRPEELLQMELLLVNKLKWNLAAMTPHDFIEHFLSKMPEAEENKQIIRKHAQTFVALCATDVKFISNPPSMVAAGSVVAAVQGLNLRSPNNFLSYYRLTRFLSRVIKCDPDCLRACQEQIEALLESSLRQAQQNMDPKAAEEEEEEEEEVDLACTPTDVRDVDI
Method: as §1, with “CDK4/Cyclin D1:” for “CDK2/Cyclin A:”, “1” for “0.1”, “200” for “50”

[6] = molecular target: CDK7/Cyclin H (Homo sapiens, UniProt P50613); assay: CDK7/Cyclin H kinase assay (Nanosyn, Caliper microfluidic); settings: 12-point dose-response, ATP at Km (50 μM), 17 hr
Sequence of CDK7/Cyclin H (P50613 whole entry): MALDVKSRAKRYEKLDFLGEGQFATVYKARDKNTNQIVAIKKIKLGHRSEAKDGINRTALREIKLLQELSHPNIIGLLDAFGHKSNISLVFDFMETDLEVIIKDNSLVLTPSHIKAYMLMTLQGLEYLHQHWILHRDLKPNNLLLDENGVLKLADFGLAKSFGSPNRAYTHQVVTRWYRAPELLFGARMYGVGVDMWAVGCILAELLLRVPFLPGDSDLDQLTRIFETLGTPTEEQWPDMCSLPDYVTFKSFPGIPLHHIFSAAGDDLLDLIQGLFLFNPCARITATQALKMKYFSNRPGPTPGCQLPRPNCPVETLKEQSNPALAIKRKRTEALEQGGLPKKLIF
Sequence of CDK7/Cyclin H (P51946 whole entry partner): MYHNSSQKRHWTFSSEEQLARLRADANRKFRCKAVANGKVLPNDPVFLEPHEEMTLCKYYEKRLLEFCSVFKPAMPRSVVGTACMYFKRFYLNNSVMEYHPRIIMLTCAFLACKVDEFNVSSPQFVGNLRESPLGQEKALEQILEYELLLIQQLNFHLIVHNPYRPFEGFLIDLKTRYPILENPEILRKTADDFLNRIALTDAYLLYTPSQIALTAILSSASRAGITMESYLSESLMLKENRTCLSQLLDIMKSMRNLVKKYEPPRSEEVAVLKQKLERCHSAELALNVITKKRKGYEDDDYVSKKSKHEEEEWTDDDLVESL
Sequence of CDK7/Cyclin H (P51948 whole entry partner): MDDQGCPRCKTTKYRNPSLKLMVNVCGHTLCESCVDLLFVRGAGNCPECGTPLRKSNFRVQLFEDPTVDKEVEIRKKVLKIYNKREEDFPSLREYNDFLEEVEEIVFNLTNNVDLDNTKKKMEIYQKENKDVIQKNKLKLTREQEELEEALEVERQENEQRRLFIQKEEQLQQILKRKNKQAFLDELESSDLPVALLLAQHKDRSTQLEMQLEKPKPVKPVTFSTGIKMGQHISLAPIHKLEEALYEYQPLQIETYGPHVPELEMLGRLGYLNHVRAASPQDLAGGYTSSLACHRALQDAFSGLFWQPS
Method: as §1, with “CDK7/Cyclin H:” for “CDK2/Cyclin A:”, “10” for “0.1”, “17” for “3”

[7] = molecular target: CDK5/p35 (Homo sapiens, UniProt Q00535); assay: CDK5/p35 kinase assay (Nanosyn, Caliper microfluidic); settings: 12-point dose-response, ATP at Km (20 μM), 3 hr
Sequence of CDK5/p35 (Q00535 whole entry): as the sequence (Q00535 whole entry) above
Sequence of CDK5/p35 (Q15078 whole entry partner): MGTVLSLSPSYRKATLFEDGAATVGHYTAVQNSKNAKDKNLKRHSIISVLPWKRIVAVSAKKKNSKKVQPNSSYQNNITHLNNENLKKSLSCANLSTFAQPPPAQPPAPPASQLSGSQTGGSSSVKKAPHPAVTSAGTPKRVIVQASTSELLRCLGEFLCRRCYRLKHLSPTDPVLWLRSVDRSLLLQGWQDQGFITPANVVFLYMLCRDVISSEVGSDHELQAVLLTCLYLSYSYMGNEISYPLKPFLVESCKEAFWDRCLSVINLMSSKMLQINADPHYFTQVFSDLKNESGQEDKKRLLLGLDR
Method: as §1, with “CDK5/p35:” for “CDK2/Cyclin A:”, “0.05” for “0.1”, “20” for “50”

[8] = molecular target: CDK1/Cyclin B1 (Homo sapiens, UniProt P06493); assay: CDK1/Cyclin B1 kinase assay (Nanosyn, Caliper microfluidic); settings: 12-point dose-response, ATP at Km (40 μM), 3 hr
Sequence of CDK1/Cyclin B1 (P06493 whole entry): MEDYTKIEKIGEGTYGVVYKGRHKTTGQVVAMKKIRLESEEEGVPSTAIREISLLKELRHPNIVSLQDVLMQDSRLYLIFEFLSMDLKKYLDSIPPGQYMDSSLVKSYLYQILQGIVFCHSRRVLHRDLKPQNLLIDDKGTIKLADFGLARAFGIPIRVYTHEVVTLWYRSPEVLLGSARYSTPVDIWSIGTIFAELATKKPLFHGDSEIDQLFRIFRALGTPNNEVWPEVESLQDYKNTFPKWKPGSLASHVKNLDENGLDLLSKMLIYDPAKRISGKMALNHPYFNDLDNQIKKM
Sequence of CDK1/Cyclin B1 (P14635 whole entry partner): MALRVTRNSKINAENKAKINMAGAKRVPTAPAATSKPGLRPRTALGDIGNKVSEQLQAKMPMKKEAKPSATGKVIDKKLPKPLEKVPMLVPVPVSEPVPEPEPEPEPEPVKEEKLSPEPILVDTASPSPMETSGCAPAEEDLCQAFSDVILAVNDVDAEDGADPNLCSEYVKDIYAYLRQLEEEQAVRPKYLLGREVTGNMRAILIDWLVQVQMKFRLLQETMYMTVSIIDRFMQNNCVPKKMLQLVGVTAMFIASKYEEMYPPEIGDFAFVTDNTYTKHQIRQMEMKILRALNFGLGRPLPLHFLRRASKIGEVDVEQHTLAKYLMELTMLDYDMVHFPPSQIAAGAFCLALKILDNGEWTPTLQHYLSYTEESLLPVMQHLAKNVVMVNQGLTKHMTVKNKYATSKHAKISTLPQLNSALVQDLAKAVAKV
Method: as §1, with “CDK1/Cyclin B1:” for “CDK2/Cyclin A:”, “0.08” for “0.1”, “40” for “50”

[9] = molecular target: CDK9/Cyclin T (Homo sapiens, UniProt P50750); assay: CDK9/Cyclin T kinase assay (Nanosyn, Caliper microfluidic); settings: 12-point dose-response, ATP at Km (10 μM), 17 hr; Table 5
Sequence of CDK9/Cyclin T (P50750 whole entry): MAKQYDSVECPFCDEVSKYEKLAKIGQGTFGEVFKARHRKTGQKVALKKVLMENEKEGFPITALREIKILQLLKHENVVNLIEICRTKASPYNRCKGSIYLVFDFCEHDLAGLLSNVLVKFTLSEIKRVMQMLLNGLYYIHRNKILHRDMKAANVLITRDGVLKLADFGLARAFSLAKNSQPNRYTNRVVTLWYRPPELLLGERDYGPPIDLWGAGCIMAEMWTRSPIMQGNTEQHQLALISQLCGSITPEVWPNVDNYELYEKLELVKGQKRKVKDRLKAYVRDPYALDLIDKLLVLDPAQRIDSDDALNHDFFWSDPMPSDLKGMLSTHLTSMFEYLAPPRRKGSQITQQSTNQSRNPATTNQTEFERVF
Sequence of CDK9/Cyclin T (O60563 whole entry partner): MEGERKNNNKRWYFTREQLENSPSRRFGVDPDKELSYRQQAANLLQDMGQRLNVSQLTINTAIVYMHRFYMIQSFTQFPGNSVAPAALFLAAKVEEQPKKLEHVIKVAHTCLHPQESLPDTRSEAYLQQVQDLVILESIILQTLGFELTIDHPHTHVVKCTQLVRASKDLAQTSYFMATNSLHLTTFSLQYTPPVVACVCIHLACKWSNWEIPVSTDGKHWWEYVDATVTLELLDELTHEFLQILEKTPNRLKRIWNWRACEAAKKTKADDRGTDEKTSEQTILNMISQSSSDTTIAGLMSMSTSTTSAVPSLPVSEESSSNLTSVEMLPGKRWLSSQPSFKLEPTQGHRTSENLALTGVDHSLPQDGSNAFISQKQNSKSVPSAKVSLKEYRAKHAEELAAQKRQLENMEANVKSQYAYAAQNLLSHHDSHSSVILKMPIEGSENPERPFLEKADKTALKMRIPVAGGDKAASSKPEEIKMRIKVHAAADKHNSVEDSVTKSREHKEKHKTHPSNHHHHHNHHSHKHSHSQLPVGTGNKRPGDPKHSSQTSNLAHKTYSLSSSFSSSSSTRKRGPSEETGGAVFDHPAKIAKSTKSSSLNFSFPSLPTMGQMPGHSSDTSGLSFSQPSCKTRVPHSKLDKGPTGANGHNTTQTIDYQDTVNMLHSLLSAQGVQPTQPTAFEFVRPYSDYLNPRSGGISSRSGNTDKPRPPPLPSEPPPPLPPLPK
Method: as §1, with “[…]:” for “CDK2/Cyclin A:”, “5” for “0.1”, “10” for “50”, “17” for “3”

[10] = molecular target: CDK6/Cyclin D3 (Homo sapiens, UniProt Q00534); assay: CDK6/Cyclin D3 kinase assay (Nanosyn, Caliper microfluidic); settings: 12-point dose-response, ATP at Km (300 μM), 3 hr
Method: as §1, with “CDK6/Cyclin D3:” for “CDK2/Cyclin A:”, “2” for “0.1”, “300” for “50”

Row | Compound | pIC50 [1] | pIC50 [2] | pIC50 [3] | pIC50 [4] | pIC50 [5] | pIC50 [6] | pIC50 [7] | pIC50 [8] | pIC50 [9] | pIC50 [10]
1 | O=C1NCC2(CCCCC2)n2c1cc1cnc(N[C@H]3C[C@@H](O)CNC3=O)nc12 [Compound 7, 2′-(((3S,5R)-5-hydroxy-2-oxopiperidin-3-yl)amino)-7′,8′-dihydro-6′H-spiro[cyclohexane-1,9′-pyrazino[1′,2′:1,5]pyrrolo[2,3-d]pyrimidin]-6′-one] | 4.19 | < 4.00 | < 4.00 | < 4.00 | 6.09 | < 4.00 | < 4.00 | < 4.00 | 5.47 | 5.25
2 | O=C1NCC2(CCCCC2)n2c1cc1cnc(N[C@@H]3C[C@@H](O)CNC3=O)nc12 [Compound 8, 2′-(((3R,5R)-5-hydroxy-2-oxopiperidin-3-yl)amino)-7′,8′-dihydro-6′H-spiro[cyclohexane-1,9′-pyrazino[1′,2′:1,5]pyrrolo[2,3-d]pyrimidin]-6′-one] | 4.96 | 4.60 | 4.74 | 4.62 | 7.00 | 5.14 | 4.59 | 4.57 | 6.36 | 6.28
3 | O=C1NCC2(CCCCC2)n2c1cc1cnc(N[C@@H]3CCCN[C@@H]3c3ccccc3)nc12 [Compound 9, 2′-(((2R,3R)-2-phenylpiperidin-3-yl)amino)-7′,8′-dihydro-6′H-spiro[cyclohexane-1,9′-pyrazino[1′,2′:1,5]pyrrolo[2,3-d]pyrimidin]-6'-one] | 4.15 | < 4.00 | < 4.00 | < 4.00 | 6.92 | 4.70 | < 4.00 | 4.09 | 5.80 | 4.92
4 | O=C1NCC2(CCCCC2)n2c1cc1cnc(N[C@H]3CCCN[C@@H]3c3ccccc3)nc12 [Compound 10, 2′-(((2R,3S)-2-phenylpiperidin-3-yl)amino)-7′,8′-dihydro-6′H-spiro[cyclohexane-1,9′-pyrazino[1′,2′:1,5]pyrrolo[2,3-d]pyrimidin]-6′-one] | 5.44 | 4.96 | 4.80 | 5.24 | 7.44 | 5.74 | 5.01 | 5.06 | 7.10 | 5.92
5 | O=C1NCC2(CCCCC2)n2c1cc1cnc(NC(=O)[C@@H]3CCCNC3)nc12 [Compound 11, (R)-N-(6′-oxo-7′,8′-dihydro-6′H-spiro[cyclohexane-1,9′-pyrazino[1′,2′:1,5]pyrrolo[2,3-d]pyrimidin]-2′-yl)piperidine-3-carboxamide] | 5.51 | 4.46 | 5.14 | 4.89 | 5.54 | 4.89 | 4.52 | 5.36 | 8.26 | 4.55
6 | O=C1NCC2(CCCCC2)n2c1cc1cnc(N[C@H]3CC[C@H](NC4CCOCC4)CC3)nc12 [Compound 16, 2′-(((1r,4r)-4-((tetrahydro-2H-pyran-4-yl)amino)cyclohexyl)amino)-7′,8′-dihydro-6′H-spiro[cyclohexane-1,9′-pyrazino[1′,2′:1,5]pyrrolo[2,3-d]pyrimidin]-6′-one] | 6.96 | 6.32 | 6.62 | 6.72 | 7.89 | 6.77 | 6.33 | 7.04 | 8.57 | 7.14
7 | O=C1NCC2(CCCCC2)n2c1cc1cnc(N[C@H]3CC[C@H](Nc4ncc(F)cn4)CC3)nc12 [Compound 19, 2′-(((1,4-trans)-4-((5-fluoropyrimidin-2-yl)amino)cyclohexyl)-12-azaneyl)-7′,8′-dihydro-6′H-spiro[cyclohexane-1,9′-pyrazino[1′,2′:1,5]pyrrolo[2,3-d]pyrimidin]-6′-one] | 7.15 | 6.92 | 6.66 | 6.96 | 8.07 | 6.13 | 6.92 | 7.02 | 8.68 | 7.12
8 | O=C1NCC2(CCCCC2)n2c1cc1cnc(N[C@H]3CC[C@H](NCc4ccccc4F)CC3)nc12 [Compound 20, 2′-(((1,4-trans)-4-((2-fluorobenzyl)amino)cyclohexyl)amino)-7′,8′-dihydro-6′H-spiro[cyclohexane-1,9′-pyrazino[1′,2′:1,5]pyrrolo[2,3-d]pyrimidin]-6′-one] | 6.74 | 6.43 | 6.40 | 6.51 | 7.85 | 6.64 | 6.43 | 6.44 | 8.33 | 7.11
9 | O=C1NCC2(CCCCC2)n2c1cc1cnc(N[C@H]3CC[C@H](NCc4cccnc4)CC3)nc12 [Compound 21, 2′-(((1,4-trans)-4-((pyridin-3-ylmethyl)amino)cyclohexyl)amino)-7′,8′-dihydro-6′H-spiro[cyclohexane-1,9′-pyrazino[1′,2′:1,5]pyrrolo[2,3-d]pyrimidin]-6′-one] | 6.85 | 6.49 | 6.54 | 6.66 | 7.85 | 6.96 | 6.46 | 6.51 | 8.68 | 7.15
